Assays:
p21 protein = assay: Western Blot of p21 protein levels; assay type: cell-based, human
[1] = tested on: cells carrying p53 mutations; assay: NCI60 screen Score ranking, p53 mutant case group vs p53 wild-type control group; conditions: p53 273/248 mutant case group vs p53 wild-type control group; NCI60 data
Protocol: The Score calculations are carried out by: • (1) calculating a Responsive Fraction, i.e., the fraction of the case cell lines in the Case Group that are responsive to the test treatment; • (2) calculating a Non-Responsive Fraction i.e., the fraction of the control cell lines in the Control Group that are not responsive to the test treatment; and • (3) generating a Score of the test treatment according to Formula I:
Score=the Responsive Fraction×the Non-Responsive Fraction.
Among the NCI60 cell lines, 16 have wild-type p53 and 44 carry a p53 alteration (Ikediobi, O. N., et al., Mol Cancer Ther, 2006. 5(11): p. 2606-12). Mutations at amino acids 273 and 248 are the most frequent, with 5 and 4 cell lines, respectively. Given the abundance of p53 mutations at positions 273 and 248 within the NCI60 cell lines, and their location in the p53-DNA contact, cells carrying these mutations were chosen to form a case group to identify compounds with increased activity in tumors with a mutant p53. On the other hand, cells with a wild-type p53 were chosen to form a control group. The resulting groups are the following:
• Leukemia: CCRF-CEM; • Lung Cancer: NCI-H322M; • Central Nervous System Cancer: SF-295, SF-268, SNB-19, and U251; • Colorectal Cancer: HT29 and SW-620; • Ovarian Cancer: OVCAR-3.
• Breast Cancer: MCF7; • Colorectal Cancer: HCT-116; • Lung Cancer: A549, NCI-H226, and NCI-H460; • Leukemia: SR; • Melanoma: LOXIMVI, MALME-3M, SK-MEL-5, UACC-257, and UACC-62; • Ovarian Cancer: OVCAR-5; • Renal Cancer: A498, ACHN, CAKI-1, and UO-31.
Using the protocols described above, the NCI60 treatment-cell line RG was constructed, taking RS=log10IC50-average(log10IC50) as a relative response sensitivity measurement and computing the average(log10IC50) over all the 60 cell lines. The Case and Control groups listed above were chosen, and the score in Formula I was computed for the 47,624 compounds in the NCI60 screen.

[2] = tested on: 10(3) cells with human mutant p53 construct 175; assay: Growth inhibition assay on isogenic murine fibroblast lines (96-well MTS); assay type: cell-based
Protocol: (§1) None of these compounds have been previously reported for their selective activity in cells with a mutant p53. To provide further evidence for their specificity, growth inhibition assays were performed on isogenic cell lines. Previously developed murine fibroblast cell line (10)3 (p53 null) and 10(3) with transfection of cytomegalovirus-human mutant p53 constructs (273, 248 and 175) (Dittmer, D., et al., Nature Genetics, 1993. 4(1): p. 42-6) were used as cases, while the murine fibroblast cell line 3T3 was used as a p53 wild type control.
(§2) The compounds were validated using several different cell line systems. The first system used was a mouse embryonic fibroblast (MEF) system in which a p53 null MEF line, 10(3), was used as a parental line from which several stable CMV-mutant p53 transfectants were derived. The p53 mutations investigated were the “hot spot” mutants 175, 248, and 273. NIH3T3 fibroblasts were used as a p53 wild type control.

[3] = tested on: 10(3) cells with human mutant p53 construct 248; assay: as above; assay type: cell-based; conditions: cells with mutation p53^248
Protocol: as §1, §2

[4] = tested on: 10(3) cells with human mutant p53 construct 273; assay: as above; assay type: cell-based; conditions: cells with mutation p53^273
Protocol: as §1, §2

[5] = tested on: murine fibroblast cell line (10)3 (p53 null); assay: as above; assay type: cell-based; conditions: p53^null cells
Protocol: as §1, §2

[6] = tested on: MEF cells with exogenous p53 mutations; assay: Apoptosis by Annexin V staining in MEF cells; assay type: cell-based, mouse; conditions: for induction of apoptosis (Annexin V staining): MEF cells with exogenous p53 mutations
Excerpt: (§3) Briefly, apoptosis was examined by Annexin V staining using standard methods.

p53 R175H = molecular target: T1, p53 R175H (Homo sapiens, UniProt P04637, R175H); assay: Immunoprecipitation of TOV112D lysates with mutant specific antibody PAB240; assay type: cell-based; conditions: detection with DO-1
T1 construct: one ovarian carcinoma cell line containing a p53^R175H (TOV112D); endogenous in cells; host or cells: TOV112D human ovarian carcinoma cells
Excerpt: This conformational change was confirmed by immunoprecipitation of lysates from NSC319726-treated TOV112D cells using the mutant specific antibody PAB240. To that end, cell lysates were precipitated with PAB240 and detected with p53 (DO-1) antibody which recognizes all types of p53 protein conformations.

[7] = tested on: p53 targets (p21, PUMA, and MDM2); assay: Quantitative real-time PCR of p53 targets; assay type: cell-based, human; conditions: TOV112D cells, treated vs untreated, normalized with actin
Protocol: (§4) Each treatment had three independent repeats (labeled as 1, 2, and 3); (e) Comparison of the p53 expression signatures of 319726 treated cells with that of p53 wild type, p53 null and p53R175H cell lines in response to gamma-irradiation.
Assays were carried out to compare the mRNA levels of several p53 targets (p21, PUMA, and MDM2) in the TOV112D (p53R175H), OVCAR3 (p53R248W) and SKOV3 (p53 null) upon treatment with the compounds. The relative gene expression level was normalized with the actin and the ratio of the treated level vs. untreated level was shown for each cell line.

[8] = tested on: murine fibroblast cell line 3T3 (p53 wild type control); assay: Growth inhibition assay on isogenic murine fibroblast lines (96-well MTS); assay type: cell-based; conditions: FIG. 5c
Protocol: as §1, §2

MEF-p53^R172H cells = assay: Viability assay in 12-well cultures (Guava PCA) in MEF lines of the same strain; assay type: cell-based, mouse; conditions: MEF-p53^R172H vs MEF-p53 wild type and MEF-p53 null
Protocol: The sensitivity was measured in 12-well cultures for viability assay using the Guava PCA instrument following the manufacture protocol.

[9] = tested on: TOV112D (p53^R175H) ovarian carcinoma cell line; assay: Sensitivity of human tumor cell line system; assay type: cell-based; conditions: 0.1 μM to 10 μM
Excerpt: Five tumor cell lines with endogenous […] mutations were compared, including two cell lines containing R248W mutations and three cell lines with a R273H mutation.

[10] = tested on: p53 wild type cell lines (H460, HCT116, MCF7 and WI38); assay: Sensitivity of human tumor cell line system; assay type: cell-based; conditions: 0.1 μM to 10 μM
[11] = tested on: TOV112D-p53R175H, OVCAR3-p53 R248W and SKOV3-p53 null; assay: Apoptosis by Annexin V staining in ovarian carcinoma cell lines; assay type: cell-based, human; conditions: three ovarian carcinoma cell lines
Excerpt: as §3

TOV112D cells = assay: Growth inhibition after silencing of p53 by siRNA; assay type: cell-based, human; conditions: p53^R175H silenced by siRNA
Excerpt: (§5) In contrast, the sensitivity of the p53 null cell line (SKOV3) was not reduced by the siRNA in a similar fashion.

[12] = tested on: p53 null cell line (SKOV3); assay: Growth inhibition after silencing of p53 by siRNA; assay type: cell-based, human
Excerpt: as §5

p53^R175H mutant protein = molecular target: T2, p53^R175H mutant protein (Homo sapiens, UniProt P04637, R175H); assay: Immuno-fluorescent staining with conformation-specific antibodies (PAB1620, PAB240, PAB1801) in TOV112D; assay type: cell-based
T2 construct: one ovarian carcinoma cell line containing a p53^R175H (TOV112D); endogenous in cells; host or cells: TOV112D human ovarian carcinoma cells
Excerpt: Conformational change to wild type in TOV112D (p53R175H) was studied by immuno-fluorescent staining.

[13] = tested on: p53 response element (p53RE) in the p21 promoter, TOV112D cells; assay: Luciferase reporter assay, p53RE of the p21 promoter; assay type: cell-based, human
Protocol: (§6) To that end, luciferase activity assays were performed. Briefly, a 20-bp p53 response element (p53RE) was subcloned in the pGL3 vector to generate a luciferase reporter plasmid, which contained 20 base pairs of the p53 response element in the p21 promoter. The sequences of the 5′ site and 3′ site at −2.27 kb and −1.38 kb (SEQ ID NOs: 1 and 3) and their reverse complements (SEQ ID NOs: 2 and 4) are listed below:
(§7) The reporter plasmid was transfected to the TOV112D cells or MEF cells with exogenous 248 or 273 mutations. Cells thus-transfected were treated with NSC319726 and subjected to luciferase assays. […] This effect was not seen in MEF cell lines expressing the 248 and 273 alleles, FIG. 10b.

[14] = tested on: p53 response element (p53RE) in the p21 promoter, MEF cells with exogenous 248 or 273 mutations; assay: as above; assay type: cell-based, mouse; conditions: MEF cell lines expressing the 248 and 273 alleles
Protocol: as §6, §7

panel of p53 targets = assay: Microarray analysis of p53 target genes in TOV112D cells; assay type: cell-based, human; conditions: TOV112D vs untreated controls
Excerpt: as §4
To examine the transcriptional activity of the NSC319725 and […]-treated cells on a larger scale, microarrays were used to analyze control- and compound-treated TOV112D cells.

[15] = Toxicity assays in p53 wild type, p53 null and p53^R172H mice; assay type: in vivo; conditions: for survival by day 4: 10 mg/kg intraperitoneally daily; for survival by day seven: 5 mg/kg
Protocol: Toxicity assays were performed in p53 wild type, p53 null, and p53^R172H mice to determine if in vivo p53 mutant synthetic lethality could be detected.
First, three groups of mice: […], p53^+/R172H/R172H mice, were compared.
Next, the dose was lowered to 5 mg/kg and three groups of mice (p53 wild type, p53 null, and p53^R172H/R172H) were compared.

[16] = tested on: p53^R172H/R172H mice tissues; assay: Cleaved Caspase-3 immuno-staining and quantitative-PCR of p53 targets in mouse tissues; assay type: in vivo
[17] = tested on: H460-p53 wildtype, MDAMB468-p53^R273H, HCT116-p53 null and TOV112D-p53^R175H xenograft tumors; assay: Mouse xenograft tumor growth; assay type: in vivo; conditions: 1 μg/g intravenously once daily vs control
[18] = cells carrying the p53^173 mutation (so in the source)

SMILES: COc1cc([C@@H]2c3cc4c(cc3[C@@H](O[C@@H]3O[C@@H]5CO[C@@H](C)O[C@H]5[C@H](O)[C@H]3O)[C@H]3COC(=O)[C@H]23)OCO4)cc(OC)c1O [Etoposide, reference compound]
- p21 induction (Western blot) (p21 protein; TOV112D (p53R175H)): failed to induce p21

SMILES: CC1=CC(=C(c2ccc(N)cc2)c2ccc(N)cc2)C=CC1=N.Cl [NSC93739]
- Score (Formula I) [1]: 0.50

SMILES: COc1ccc2c(c1)c1c(C)c3c[n+](C)ccc3c(C)c1n2C [NSC155694]
- Score (Formula I) [1]: 0.55

SMILES: CC(=NNC(=S)N(C)C)c1ccccn1 [NSC319725]
- Score (Formula I) [1]: 0.50
- IC50 [2, 18]: ~10 nM
- IC50 [3]: ~100 nM
- IC50 [4]: ~100 nM
- IC50 [5]: ~100 nM
- induction of apoptosis (Annexin V staining) [6]: did not induce apoptosis
- amount of p53 R175H immunoprecipitated by mutant specific antibody PAB240 (p53 R175H): not
- p21 induction (Western blot) (p21 protein; SKOV3 (p53 null)): did induce p21
- p21 induction (Western blot) (p21 protein; TOV112D (p53R175H)): did not induce p21
- induction of mRNA of p53 targets p21, PUMA, MDM2 [7]: no such effect

SMILES: C/C(=N\NC(=S)N1CCC1)c1ccccn1 [NSC319726]
- Score (Formula I) [1]: 0.52
- IC50 ([2]; 175 mutant, FIG. 5c): 8 nM
- IC50 [2, 18]: ~10 nM
- IC50 [3]: ~100 nM
- IC50 [4]: ~100 nM
- IC50 [5]: ~100 nM
- IC50 [8]: not even reached
- sensitivity compared to p53 wild type and p53 null controls (MEF-p53^R172H cells): much higher sensitivity
- sensitivity [9]: marked sensitivity
- sensitivity [10]: relative lack of sensitivity
- apoptosis response of (10)3/175 ([6]; (10)3/175 compared with other MEF lines): strongest apoptosis response
- induction of apoptosis (Annexin V staining) [6]: induced apoptosis
- induction of apoptosis (Annexin V staining) [11]: induction of apoptosis in all three
- change of sensitivity on p53 siRNA (TOV112D cells): reduced by four-fold
- change of sensitivity on p53 siRNA [12]: not reduced
- conformational change of p53^R175H (recognised by PAB1620, no longer by PAB240) (p53^R175H mutant protein): induced a change in conformation
- amount of p53 R175H immunoprecipitated by mutant specific antibody PAB240 (p53 R175H): greatly reduced
- p21 induction (Western blot) (p21 protein; TOV112D (p53R175H)): induced p21
- increase in luciferase activity [13]: 2.5 fold
- increase in luciferase activity [14]: not seen
- induction of mRNA of p53 targets p21, PUMA, MDM2 [7]: induced all three targets
- transcriptional levels of panel of p53 targets (microarray) (panel of p53 targets): induced a large proportion of these genes
- mice alive by day seven ([15]; mouse, in vivo, ip, 10 mg/kg): approximately 40%
- survival by day 4 ([15]; p53^+/R172H mice): 30%
- survival by day seven ([15]; p53^R172H/R172H mice): 30%
- survival by day seven ([15]; p53 null mice): 100%
- survival by day seven ([15]; p53 wild type mice): 100%
- survival by day 4 ([15]; p53 wild type mice): 70%
- cleaved Caspase-3 immuno-stained cells in spleen and thymus ([16]; p53^R172H/R172H mice vs wild type controls, 24 hours treatment): abundantly more cleaved Caspase-3 immuno-stained cells
- mRNA levels of p53 targets in tissues ([16]; p53^R172H/R172H mice vs wild type, lung, spleen, thymus, small intestine, 24 hours): Elevated mRNA levels
- xenograft tumor growth inhibition [17]: inhibited mouse xenograft tumor growth in an allele specific mutant p53 dependent manner

SMILES: CC(=O)c1ccc2c(c1)c1c(C)c3c[n+](C)ccc3c(C)c1n2C.[I-] [NSC612941]
- Score (Formula I) [1]: 0.55

SMILES: Cc1ccc(S(=O)(=O)O)cc1.Cn1c2ccccc2n2c3ccccc3c3nnc(N)c-3c12 [NSC694266]
- Score (Formula I) [1]: 0.50
